The test system of the assay is NL43 HIV-1 laboratory strain. The assay can be described thus: NL43 HIV-1 laboratory strain replication assay with HelaCD4+β-Gal indicator cells (P4 cells), CPRG development, CalcuSyn analysis. It counts as cell-based. The method, then: Synergistic interactions between quinoline compounds (BA011FZ041) and either RT (zidovudine and nevirapine) or other integrase inhibitors (L-731,988) were investigated using a NL43 HIV-1 laboratory strain replication assay. Virus infectivity in the presence of inhibitors was monitored with HelaCD4+β-Gal indicator cells (P4 cells). Inhibition by combination of BA011FZ041 and other inhibitors was evaluated at three fixed molar BA011FZ041/Inhibitor ratios: 1:1, 1:2, and 2:1. Three independent experiments with triplicate data points were performed for each ratio. Interactions were calculated by the multiple drug effect equation of Chou and Talalay (Chou and Talalay, 1983; and Chou and Talalay, 1984) based on the median effect principle, using CalcuSyn® software (Biosoft, UK).
On the day prior to the test, 5,000 HeLaP4 cells per well are seeded in 100 μl of 10% FBS DMEM supplemented with […] penicillin, 100 μg/ml streptomycin and 0.5 mg/ml geniticin (G418). Otherwise, in the morning of the test, 10,000 HeLaP4 cells are seeded per well in 100 μl of 10% FBS DMEM supplemented with […] penicillin, 100 μg/ml streptomycin and 0.5 mg/ml geniticin (G418).
One plate of cells is used for the 2 drugs alone+half a plate per ratio tested is used for development with CPRG and, as necessary, an equivalent number of plates for the MTT toxicity test.
Several drug-drug ratios are tested: 1:1, 1:2, 2:1, 1:4 and 4:1.
Ratios are expressed relative to IC50 values. For the 1:1 ratio, the IC50 concentration for (BA011FZ041+drug X) is the IC50 concentration for BA011FZ041+the IC50 concentration for drug X.
For the 1:2 ratio, the IC50 concentration for (BA011FZ041+drug X) is the IC50 concentration for BA011FZ041+twice the IC50 concentration for drug X.
The form of BA011FZ041 tested is the sodium carbonate salt.
Further dilutions are also performed using PBS and are then distributed at 5 μl per well. • For DMSO: the molecules are resuspended at a concentration 200-fold higher than that finally required in the well so that DMSO be non toxic for the HeLa P4 cells. The quantity of DMSO is constant for each drug concentration tested.
In practice, initial dilutions are performed using DMSO, with these solutions then being rediluted fivefold in PBS or culture medium so as to obtain concentrations 40-fold higher than those finally required in the well. The solutions are then distributed at 5 μl per well.
Prior to infection, the wells are filled up to a final volume of 200 μl with 40 or 45 μl of medium.
NL4.3 viral supernatant has been produced by CaCl2 transfection of 293T cells. The HeLa P4 cells are infected with NL 4.3 HIV virus, with about 1 to 2 ng of P24 per well.
Depending on the P24 content of the virus used, a virus solution+10% FBS DMEM supplemented with […] penicillin, 100 μg/ml streptomycin and 0.5 mg/ml geniticin (G418) is prepared and is then distributed at 50 μl per well.
The plates are incubated at 37° C., 5% CO2, for 60 hours.
The CPRG (chlorophenol red-β-D-galactopyranoside) test is a […] test enabling measurement of the quantity of β-galactosidase produced during viral infection (the β-gal gene is under the control of the TAR element which in turn is controlled by the viral. TAT).
The supernatant is removed from the plates of HelaP4 cells. 100 μl of CPRG lysis buffer is added per well (for 110 wells: Na2HPO4 (0.5M) 1687 μL, NaH2PO4 (1M) 440 μL, KCl (1M) 110 μL, MgSO4 (1M) 220 μL, EDTA (0.5M) 55 μL, β-mercaptoethanol 39 μL, NP40 14 μL, water 8617 μL).
The cells are incubated for 10 minutes at 37° C. in order to obtain full cell lysis. The lysed wells are homogenized and 50 μl of each lysate is transferred into the corresponding well of another plate containing 100 μl reaction buffer (for 110 wells: pH 7.4 phosphate buffer (1M) 880 μL, MgCl2 99 μL, β-mercaptoethanol 77 μL, water 8140 μL, CPRG (250 mg of CPRG dissolved in 9.1 ml of Millipore water+455 μl pH 7.4 sodium phosphate buffer) 1833 μL).

Read-outs that look alike come from different tables or passages of the source.

IC50 data for four compounds are collected here from patent US20080280849A1, “Synergic Combinations Comprising a Quinoline Compound and Other Hiv Infection Therapeutic Agents” (priority 2005, published 2008).

For orientation: IC50 means the concentration needed to halve the response being measured. For `COc1cc(C=Cc2ccc3ccc(C(=O)O)c(O)c3n2)cc(O)c1O` [BA011FZ041, 8-hydroxy-2-[2-[(3,4-dihydroxy-5-methoxy-phenyl)ethenyl]]7-quinoline carboxylic acid], the IC50 is, setting by setting: (Table 6, Ratio 1:1 series with Nev, drug alone, Mean, read-out: IC50 FZ41, drug alone) 1600 nM; (Table 6, Ratio 1:2 series with Nev, drug alone, Mean, read-out: IC50 FZ4, drug alone) 1500 nM; (Table 6, Ratio 2:1 series with Nev, drug alone, Mean, read-out: IC50 FZ41, drug alone) 1500 nM; (Table 8, Ratio 1:1 series with ZVD, drug alone, Mean, read-out: IC50 FZ41, drug alone) 1400 nM; (Table 8, Ratio 1:2 series with ZVD, drug alone, Mean, read-out: IC50 FZ41, drug alone) 1700 nM; (Table 8, Ratio 2:1 series with ZVD, drug alone, Mean, read-out: IC50 FZ41, drug alone) 1700 nM. Besides, the half-maximal inhibitory concentration (IC50) runs as follows: (Table 10, Ratio 1:1 series with L-731,988, drug alone, Mean, read-out: IC50 FZ41, drug alone) 1300 nM; (Table 10, Ratio 1:2 series with L-731,988, drug alone, Mean, read-out: IC50 FZ41, drug alone) 1300 nM; (Table 10, Ratio 2:1 series with L-731,988, drug alone, Mean, read-out: IC50 FZ41, drug alone) 1300 nM; (in the mix with L-731,988, Ratio 1:1, Mean, read-out: IC50 FZ41, in the mix) 900 nM; (in the mix with L-731,988, Ratio 1:2, Mean, read-out: IC50 FZ41, in the mix) 800 nM; (in the mix with L-731,988, Ratio 2:1, Mean, read-out: IC50 FZ41, in the mix) 1100 nM. The IC50 (in the mix with Nev, Ratio 1:1, Mean, read-out: IC50 FZ41, in the mix) was 1100 nM; the IC50 (in the mix with Nev, Ratio 1:2, Mean, read-out: IC50 FZ4, in the mix) was 900 nM; the IC50 (in the mix with Nev, Ratio 2:1, Mean, read-out: IC50 FZ41, in the mix) was 1200 nM; the IC50 (in the mix with ZVD, Ratio 1:1, Mean, read-out: IC50 FZ41, in the mix) is 800 nM; the IC50 (in the mix with ZVD, Ratio 1:2, Mean, read-out: IC50 FZ41, in the mix) is 700 nM; the IC50 (in the mix with ZVD, Ratio 2:1, Mean, read-out: IC50 FZ41, in the mix) is 1100 nM.
For `O=C(O)C(=O)CC(=O)c1cccn1Cc1ccc(F)cc1` [L-731,988, 4-[1-(4-fluorobenzyl)pyrrole-2-yl]-2,4-diketobutanoic acid], the IC50 is, setting by setting: (Human immunodeficiency virus 1, NL43, Table 10, Ratio 1:1 series, drug alone, Mean, read-out: IC50 L-731,988, drug alone) 1500 nM; (Human immunodeficiency virus 1, NL43, Table 10, Ratio 1:2 series, drug alone, Mean, read-out: IC50 L-731,988, drug alone) 1500 nM; (Human immunodeficiency virus 1, NL43, Table 10, Ratio 2:1 series, drug alone, Mean, read-out: IC50 L-731,988, drug alone) 1500 nM; (Human immunodeficiency virus 1, NL43, in the mix with FZ41, Ratio 1:1, Mean, read-out: IC50 L-731,988, in the mix) 300 nM; (Human immunodeficiency virus 1, NL43, in the mix with FZ41, Ratio 1:2, Mean, read-out: IC50 L-731,988, in the mix) 500 nM; (Human immunodeficiency virus 1, NL43, in the mix with FZ41, Ratio 2:1, Mean, read-out: IC50 L-731,988, in the mix) 200 nM.
As to `Cc1ccnc2c1NC(=O)c1cccnc1N2C1CC1` [Nev], the IC50 runs as follows: (Human immunodeficiency virus 1, NL43, Table 6, Ratio 1:1 series, drug alone, Mean, read-out: IC50 Nev, drug alone) 39 nM; (Human immunodeficiency virus 1, NL43, Table 6, Ratio 1:2 series, drug alone, Mean, read-out: IC50 Nev, drug alone) 41 nM; (Human immunodeficiency virus 1, NL43, Table 6, Ratio 2:1 series, drug alone, Mean, read-out: IC50 Nev, drug alone) 39 nM; (Human immunodeficiency virus 1, NL43, in the mix with FZ41, Ratio 1:1, Mean, read-out: IC50 Nev, in the mix) 11 nM; (Human immunodeficiency virus 1, NL43, in the mix with FZ41, Ratio 1:2, Mean, read-out: IC50 Nev, in the mix) 18 nM; (Human immunodeficiency virus 1, NL43, in the mix with FZ41, Ratio 2:1, Mean, read-out: IC50 Nev, in the mix) 6.3 nM.
On to `Cc1cn([C@H]2C[C@H](N=[N+]=[N-])[C@@H](CO)O2)c(=O)[nH]c1=O` [ZVD, 3′-azido-3′-deoxythymidine], for which the IC50 is 29 nM (Human immunodeficiency virus 1, NL43, Table 8, Ratio 1:1 series, drug alone, Mean, read-out: IC50 ZVD, drug alone); 46 nM (Human immunodeficiency virus 1, NL43, Table 8, Ratio 1:2 series, drug alone, Mean, read-out: IC50 ZVD, drug alone); 44 nM (Human immunodeficiency virus 1, NL43, Table 8, Ratio 2:1 series, drug alone, Mean, read-out: IC50 ZVD, drug alone); 16 nM (Human immunodeficiency virus 1, NL43, in the mix with FZ41, Ratio 1:1, Mean, read-out: IC50 ZVD, in the mix); 28 nM (Human immunodeficiency virus 1, NL43, in the mix with FZ41, Ratio 1:2, Mean, read-out: IC50 ZVD, in the mix); 11 nM (Human immunodeficiency virus 1, NL43, in the mix with FZ41, Ratio 2:1, Mean, read-out: IC50 ZVD, in the mix).
